Source: paper PMC11494653, “Teixobactin “Swapmers” with L Tail Stereochemistry Retain Antibiotic Activity” (The Journal of Organic Chemistry, 2024)
≈ marks a conversion by molar mass, not a printed value. Positions of bridges follow the written chain, without caps; N, C: chain ends. Non-standard residues stand in square brackets, D forms with d. Residues, ends and D or L forms follow the SMILES beside them. Chains are numbered I, II in the order given. d(aIle) = CC[C@H](C)[C@@H](N)C(=O)O; NMeF = CN[C@@H](Cc1ccccc1)C(=O)O; dNMeF = CN[C@H](Cc1ccccc1)C(=O)O

How the values were obtained:
Assay type in all cases: cell-based
[1] = tested on: Staphylococcus aureus (MRSA) ATCC 700698; experiment: microbe, parasite or virus in culture; conditions: for MIC Staphylococcus aureus (MRSA) ATCC 700698: ATCC 700698, 16 h
Excerpt: (§1) We determined the MIC values of these teixobactin swapmer prodrugs against the Gram-positive bacteria Bacillus subtilis, Staphylococcus epidermidis, methicillin-susceptible Staphylococcus aureus (MSSA), and methicillin-resistant Staphylococcus aureus (MRSA) in a broth microdilution assay as described previously.[9],[10] We used the antibiotic vancomycin as a positive control and the Gram-negative bacterium Escherichia coli as a negative control. The MIC values for Lys10-teixobactin 1, Lys10-teixobactin prodrug 2, Arg10-teixobactin 6, and Arg10-teixobactin prodrug 7 are shown in Table 1 for comparison with the swapmer analogues.
(§2) We performed minimum inhibitory concentration (MIC) assays as previously described.[9] A concise procedure is detailed below.
(§3) Stock solutions of teixobactin analogues were prepared gravimetrically by dissolving an appropriate amount of peptide in 20 mg/mL sterile DMSO. The stock solutions were stored at −20 °C for subsequent experiments.
(§4) Bacillus subtilis (ATCC 6051), Staphylococcus epidermidis (ATCC 14990), methicillin-susceptible Staphylococcus aureus (MSSA) (ATCC 29213), and Escherichia coli (ATCC 10798) were cultured from glycerol stocks in Mueller-Hinton broth containing 0.002% polysorbate 80 overnight in a shaking incubator at 37 °C. Methicillin-resistant Staphylococcus aureus (MRSA) (ATCC 700698) was cultured from a glycerol stock in brain hearth infusion broth containing 0.002% polysorbate 80 overnight in a shaking incubator at 37 °C. After overnight incubation, each culture was diluted with the appropriate media (containing 0.002% polysorbate 80) to 1 × 10^6 colony-forming units (CFU)/mL as previously described.[12],[15],[16] Briefly, we have previously determined the CFU/mL for each bacterium at OD600 = 0.075 for 200 μL of bacterial culture in a 96-well plate. The OD600 of each overnight culture was determined, and then each culture was diluted to OD600 = 0.075. Cultures were further diluted to achieve 1 × 10^6 CFU/mL solutions.
(§5) Aliquots of the 20 mg/mL peptide stock solutions were diluted to make a 64 μg/mL solution in Mueller-Hinton broth containing 0.002% polysorbate 80 and a 64 μg/mL solution in brain heart infusion broth containing 0.002% polysorbate 80. The solutions were mixed by pipetting to ensure homogeneity. A 200-μL aliquot of a 64 μg/mL solution was transferred to a 96-well plate. 2-fold serial dilutions were made with media containing 0.002% polysorbate 80 across the 96-well plate to achieve a final volume of 100 μL in each well (initial concentrations ranging from 64 to 0.0625 μg/mL). A 100-μL aliquot of a 1 × 10^6 CFU/mL bacterial solution was added to each well in the series, resulting in final bacterial concentrations of 5 × 10^5 CFU/mL in each well. As 100 μL of bacteria were added to each well, the concentration of peptide was also diluted 2-fold (final concentrations ranging from 32 μg/mL to 0.03125 μg/mL). Each plate was covered with a lid and incubated at 37 °C for 16 h. The optical density measurements were measured at 600 nm using a 96-well UV–vis plate reader (MultiSkan GO, Thermo Scientific). The MIC values were taken as the lowest concentration that had no bacterial growth. MIC assays for each compound were performed in triplicate to ensure reproducibility.

[2] = tested on: Escherichia coli ATCC 10798; experiment: microbe, parasite or virus in culture; conditions: for MIC Escherichia coli ATCC 10798: ATCC 10798, 16 h
Excerpt: as §1, §2, §3, §4, §5

[3] = tested on: Staphylococcus epidermidis ATCC 14990; experiment: microbe, parasite or virus in culture; conditions: for MIC Staphylococcus epidermidis ATCC 14990: ATCC 14990, 16 h
Excerpt: as §1, §2, §3, §4, §5

[4] = tested on: Bacillus subtilis ATCC 6051; experiment: microbe, parasite or virus in culture; conditions: for MIC Bacillus subtilis ATCC 6051 / MIC B. subtilis: ATCC 6051, 16 h
Excerpt: as §1, §2, §3, §4, §5

[5] = tested on: Staphylococcus aureus (MSSA) ATCC 29213; experiment: microbe, parasite or virus in culture; conditions: for MIC Staphylococcus aureus (MSSA) ATCC 29213: ATCC 29213, 16 h
Excerpt: as §1, §2, §3, §4, §5

all bacteria tested = experiment: MIC broth microdilution assay, summary over all bacteria; conditions: concentration range tested up to 32 μg/mL
Excerpt: as §1, §2, §3
as §4, with “After overnight incubation, each culture was diluted with the appropriate media (containing 0.002% polysorbate 80) to 1 × 10^6 colony-forming units (CFU)/mL as previously described.[12],[15],[16]” left out, “Cultures were further diluted to achieve 1 × 10^6 CFU/mL solutions.” left out
Aliquots of the 20 mg/mL peptide stock solutions were diluted to make a 64 μg/mL solution in Mueller-Hinton broth containing 0.002% polysorbate 80 and a 64 μg/mL solution in brain heart infusion broth containing 0.002% polysorbate 80. […] The optical density measurements were measured at 600 nm using a 96-well UV–vis plate reader (MultiSkan GO, Thermo Scientific). […]

[6] = tested on: Gram-positive bacteria tested; conditions: 16 h
Excerpt: as §1, §2, §3, §4
Aliquots of the 20 mg/mL peptide stock solutions were diluted to make a 64 μg/mL solution in Mueller-Hinton broth containing 0.002% polysorbate 80 and a 64 μg/mL solution in brain heart infusion broth containing 0.002% polysorbate 80. The solutions were mixed by pipetting to ensure homogeneity. A 200-μL aliquot of a 64 μg/mL solution was transferred to a 96-well plate. 2-fold serial dilutions were made with media containing 0.002% polysorbate 80 across the 96-well plate to achieve a final volume of 100 μL in each well (initial concentrations ranging from 64 to 0.0625 μg/mL). […] The optical density measurements were measured at 600 nm using a 96-well UV–vis plate reader (MultiSkan GO, Thermo Scientific). […]

Row | SMILES | MIC Staphylococcus aureus (MRSA) ATCC 700698 [1] | MIC Escherichia coli ATCC 10798 [2] | MIC Staphylococcus epidermidis ATCC 14990 [3] | MIC Bacillus subtilis ATCC 6051 [4] | MIC Staphylococcus aureus (MSSA) ATCC 29213 [5] | antibiotic activity in words against all bacteria tested (all bacteria tested) | MIC values against the Gram-positive bacteria tested [6] | fold reduced activity compared to the unswapped analogues 1, 2, 6, and 7 [6] | MIC B. subtilis [4] | MIC ([1]; Staphylococcus aureus, 16 h, read-out: MIC Staphylococcus aureus (MRSA) ATCC 700698) | MIC ([2]; Escherichia coli, ATCC10798, 16 h, read-out: MIC Escherichia coli ATCC 10798) | MIC ([3]; Staphylococcus epidermidis, ATCC14990, 16 h, read-out: MIC Staphylococcus epidermidis ATCC 14990) | MIC ([4]; Bacillus subtilis, ATCC6051, 16 h, read-out: MIC Bacillus subtilis ATCC 6051) | MIC ([5]; Staphylococcus aureus, 16 h, read-out: MIC Staphylococcus aureus (MSSA) ATCC 29213)
1 | CC[C@H](C)[C@H](NC(=O)[C@H](Cc1ccccc1)NC)C(=O)N[C@@H](CO)C(=O)N[C@H](C(=O)N[C@@H](CCC(N)=O)C(=O)N[C@H](C(=O)OC[C@H](N)C(=O)N[C@H]1C(=O)N[C@@H](C)C(=O)N[C@@H](CCCCN)C(=O)N[C@@H]([C@@H](C)CC)C(=O)O[C@H]1C)[C@@H](C)CC)[C@@H](C)CC [compound 4, N-Me-L-Phe1,Ile4,Gln5,[Ile6-O-Ser7],Lys10-teixobactin] (I: H-[NMeF]ISIQI / II: H-S[dT]AKI; ester I:C-II:1, II:2-II:C) | >32 µg/mL | >32 µg/mL | >32 µg/mL | ≥32 µg/mL | >32 µg/mL | virtually inactive |  |  |  |  |  |  |  | 
2 | CC[C@H](C)[C@H](NC(=O)[C@H](CO)NC(=O)[C@@H](NC(=O)[C@@H](Cc1ccccc1)NC)[C@@H](C)CC)C(=O)N[C@@H](CCC(N)=O)C(=O)N[C@H](C(=O)OC[C@H](N)C(=O)N[C@H]1C(=O)N[C@@H](C)C(=O)N[C@@H](CCCCN)C(=O)N[C@@H]([C@@H](C)CC)C(=O)O[C@H]1C)[C@@H](C)CC [compound 3, Ile4,Gln5,[Ile6-O-Ser7],Lys10-teixobactin] (I: H-[dNMeF]ISIQI / II: H-S[dT]AKI; ester I:C-II:1, II:2-II:C) | 8 µg/mL (≈ 6.58 µM) | >32 µg/mL | 4 µg/mL (≈ 3.29 µM) | 4 µg/mL (≈ 3.29 µM) | 8 µg/mL (≈ 6.58 µM) |  | 4 to 8 µg/mL | 2–4 fold |  |  |  |  |  | 
3 | CC[C@H](C)[C@H](NC(=O)[C@@H](Cc1ccccc1)NC)C(=O)N[C@@H](CO)C(=O)N[C@H](CCC(N)=O)C(=O)N[C@@H](C(=O)N[C@H](C(=O)N[C@@H](CO)C(=O)N[C@H]1C(=O)N[C@@H](C)C(=O)N[C@@H](CCCCN)C(=O)N[C@@H]([C@@H](C)CC)C(=O)O[C@H]1C)[C@@H](C)CC)[C@@H](C)CC [compound 1, Lys10-teixobactin] (H-[dNMeF]IS[dQ][d(aIle)]IS[dT]AKI; ester 8-C) | 2 µg/mL (≈ 1.64 µM) | >32 µg/mL | 1 µg/mL (≈ 0.822 µM) | ≤0.0313 µg/mL | 2 µg/mL (≈ 1.64 µM) |  |  |  | ≤ 0.0625 µg/mL |  |  |  |  | 
4 | CC[C@H](C)[C@H](NC(=O)[C@H](CO)NC(=O)[C@@H](NC(=O)[C@@H](Cc1ccccc1)NC)[C@@H](C)CC)C(=O)N[C@@H](CCC(N)=O)C(=O)N[C@H](C(=O)OC[C@H](N)C(=O)N[C@H]1C(=O)N[C@@H](C)C(=O)N[C@@H](CCCNC(=N)N)C(=O)N[C@@H]([C@@H](C)CC)C(=O)O[C@H]1C)[C@@H](C)CC [compound 8, Ile4,Gln5,[Ile6-O-Ser7],Arg10-teixobactin] (I: H-[dNMeF]ISIQI / II: H-S[dT]ARI; ester I:C-II:1, II:2-II:C) | 4 µg/mL (≈ 3.21 µM) | >32 µg/mL | 2 µg/mL (≈ 1.61 µM) | 2 µg/mL (≈ 1.61 µM) | 4 µg/mL (≈ 3.21 µM) |  | 2 to 4 µg/mL | 2–4 fold |  |  |  |  |  | 
5 | CC[C@H](C)[C@H](NC(=O)[C@@H](Cc1ccccc1)NC)C(=O)N[C@@H](CO)C(=O)N[C@H](CCC(N)=O)C(=O)N[C@@H](C(=O)N[C@H](C(=O)N[C@@H](CO)C(=O)N[C@H]1C(=O)N[C@@H](C)C(=O)N[C@@H](CCCNC(=N)N)C(=O)N[C@@H]([C@@H](C)CC)C(=O)O[C@H]1C)[C@@H](C)CC)[C@@H](C)CC [compound 6, Arg10-teixobactin] | 2 µg/mL (≈ 1.61 µM) | >32 µg/mL | 0.5 µg/mL (≈ 0.402 µM) | ≤0.0313 µg/mL | 2 µg/mL (≈ 1.61 µM) |  |  |  | ≤ 0.0625 µg/mL |  |  |  |  | 
6 | CC[C@H](C)[C@H](NC(=O)[C@@H](Cc1ccccc1)NC)C(=O)N[C@@H](CO)C(=O)N[C@H](CCC(N)=O)C(=O)N[C@@H](C(=O)N[C@H](C(=O)OC[C@H](N)C(=O)N[C@H]1C(=O)N[C@@H](C)C(=O)N[C@@H](CCCNC(=N)N)C(=O)N[C@@H]([C@@H](C)CC)C(=O)O[C@H]1C)[C@@H](C)CC)[C@@H](C)CC [compound 7, [Ile6-O-Ser7],Arg10-teixobactin] (I: H-[dNMeF]IS[dQ][d(aIle)]I / II: H-S[dT]ARI; ester I:C-II:1, II:2-II:C) | 1 µg/mL (≈ 0.804 µM) | >32 µg/mL | 0.5 µg/mL (≈ 0.402 µM) | 0.0625 µg/mL (≈ 0.0502 µM) | 2 µg/mL (≈ 1.61 µM) |  |  |  | ≤ 0.0625 µg/mL |  |  |  |  | 
7 | CC[C@H](C)[C@H](NC(=O)[C@@H](Cc1ccccc1)NC)C(=O)N[C@@H](CO)C(=O)N[C@H](CCC(N)=O)C(=O)N[C@@H](C(=O)N[C@H](C(=O)OC[C@H](N)C(=O)N[C@H]1C(=O)N[C@@H](C)C(=O)N[C@@H](CCCCN)C(=O)N[C@@H]([C@@H](C)CC)C(=O)O[C@H]1C)[C@@H](C)CC)[C@@H](C)CC [compound 2, [Ile6-O-Ser7],Lys10-teixobactin] (I: H-[dNMeF]IS[dQ][d(aIle)]I / II: H-S[dT]AKI; ester I:C-II:1, II:2-II:C) | 1 to 2 µg/mL | >32 µg/mL | 1 µg/mL (≈ 0.822 µM) | ≤0.0313 µg/mL | 2 µg/mL (≈ 1.64 µM) |  |  |  | ≤ 0.0625 µg/mL |  |  |  |  | 
8 | CN[C@H](CC(C)C)C(=O)N[C@H]1C(=O)N[C@@H](CC(N)=O)C(=O)N[C@H]2C(=O)N[C@H]3C(=O)N[C@H](C(=O)N[C@H](C(=O)O)c4cc(O)cc(O)c4-c4cc3ccc4O)[C@H](O)c3ccc(c(Cl)c3)Oc3cc2cc(c3O[C@@H]2O[C@H](CO)[C@@H](O)[C@H](O)[C@H]2O[C@H]2C[C@](C)(N)[C@H](O)[C@H](C)O2)Oc2ccc(cc2Cl)[C@H]1O [vancomycin, reference compound] |  |  |  |  |  |  |  |  |  | 4 µg/mL (≈ 2.76 µM) | > 32 µg/mL | 1 to 2 µg/mL (≈ 0.69 to 1.38 µM) | 0.125 to 0.25 µg/mL (≈ 0.0863 to 0.173 µM) | 1 to 2 µg/mL (≈ 0.69 to 1.38 µM)
